In PubChem BioAssay (NCI):
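Assay format: 96-well plates, 48-hour exposure. GI50 marks 50% less growth. Definition used: TGI = concentration required for complete inhibition of growth.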

Tests used:
Experiment in all cases: NCI tumour cell line growth inhibition, 48 h
OVCAR-5 ovarian = system: OVCAR-5 ovarian
A549 NSCLC = system: A549 NSCLC
SF-295 CNS = system: SF-295 CNS
OVCAR-8 ovarian = system: OVCAR-8 ovarian
SK-MEL-2 melanoma = system: SK-MEL-2 melanoma
HCC-2998 colon = system: HCC-2998 colon
SK-OV-3 ovarian = system: SK-OV-3 ovarian
CAKI-1 renal = system: CAKI-1 renal
RPMI-8226 leukemia = system: RPMI-8226 leukemia
COLO 205 colon = system: COLO 205 colon
NCI-H23 lung = system: NCI-H23 lung
SF-539 CNS = system: SF-539 CNS
BT-549 breast = system: BT-549 breast
MALME-3M melanoma = system: MALME-3M melanoma
SR leukemia = system: SR leukemia
HCT-116 colon = system: HCT-116 colon
NCI/ADR-RES ovarian = system: NCI/ADR-RES ovarian
SW-620 colon = system: SW-620 colon
MDA-MB-231 breast = system: MDA-MB-231 breast
KM12 colon = system: KM12 colon
SN12C renal = system: SN12C renal
MDA-MB-435 = system: MDA-MB-435
HS 578T breast = system: HS 578T breast
A498 renal = system: A498 renal
UACC-257 melanoma = system: UACC-257 melanoma
MCF7 breast = system: MCF7 breast
M14 melanoma = system: M14 melanoma
EKVX NSCLC = system: EKVX NSCLC
IGROV1 ovarian = system: IGROV1 ovarian
NCI-H226 lung = system: NCI-H226 lung
SK-MEL-28 melanoma = system: SK-MEL-28 melanoma
DU-145 prostate = system: DU-145 prostate
K-562 leukemia = system: K-562 leukemia
HCT-15 colon = system: HCT-15 colon
SNB-19 CNS = system: SNB-19 CNS
SNB-75 CNS = system: SNB-75 CNS
SK-MEL-5 melanoma = system: SK-MEL-5 melanoma
SF-268 CNS = system: SF-268 CNS
CCRF-CEM leukemia = system: CCRF-CEM leukemia
T-47D breast = system: T-47D breast
UACC-62 melanoma = system: UACC-62 melanoma
NCI-H522 lung = system: NCI-H522 lung
LOX IMVI melanoma = system: LOX IMVI melanoma
HOP-62 NSCLC = system: HOP-62 NSCLC
PC-3 prostate = system: PC-3 prostate
ACHN renal = system: ACHN renal
HOP-92 NSCLC = system: HOP-92 NSCLC
786-0 renal = system: 786-0 renal
NCI-H460 lung = system: NCI-H460 lung
HT29 colon = system: HT29 colon
OVCAR-3 ovarian = system: OVCAR-3 ovarian
UO-31 renal = system: UO-31 renal
OVCAR-4 ovarian = system: OVCAR-4 ovarian
TK-10 renal = system: TK-10 renal
U251 CNS = system: U251 CNS
HL-60(TB) leukemia = system: HL-60(TB) leukemia
RXF 393 renal = system: RXF 393 renal
MOLT-4 leukemia = system: MOLT-4 leukemia

## CC1CN=C(c2cccc(-c3ccc(-c4ccccc4)o3)c2)N1 (centres undefined)
OVCAR-5 ovarian
  GI50: 2.11 µM
  TGI: 5.41 µM
A549 NSCLC
  GI50: 3.68 µM
  TGI: 11.2 µM
SF-295 CNS
  GI50: 1.81 µM
  TGI: 3.84 µM
OVCAR-8 ovarian
  GI50: 5.98 µM
  TGI: 23.2 µM
SK-MEL-2 melanoma
  GI50: 1.74 µM
  TGI: 3.57 µM
HCC-2998 colon
  GI50: 1.95 µM
  TGI: 3.65 µM
SK-OV-3 ovarian
  GI50: 4.2 µM
  TGI: 14.8 µM
CAKI-1 renal
  GI50: 2.55 µM
  TGI: 9.19 µM
RPMI-8226 leukemia
  GI50: 2.43 µM
  TGI: 7.05 µM
COLO 205 colon
  GI50: 1.61 µM
  TGI: 3.25 µM
NCI-H23 lung
  GI50: 2.97 µM
  TGI: 12.5 µM
SF-539 CNS
  GI50: 1.76 µM
  TGI: 3.42 µM
BT-549 breast
  GI50: 10.5 µM
  TGI: 22.5 µM
MALME-3M melanoma
  GI50: 1.82 µM
  TGI: 3.63 µM
SR leukemia
  GI50: 1.86 µM
  TGI: 5.32 µM
HCT-116 colon
  GI50: 1.81 µM
  TGI: 3.69 µM
NCI/ADR-RES ovarian
  GI50: 3.57 µM
  TGI: 25.9 µM
SW-620 colon
  GI50: 1.85 µM
  TGI: 3.69 µM
MDA-MB-231 breast
  GI50: 2.2 µM
  TGI: 4.49 µM
KM12 colon
  GI50: 2.66 µM
  TGI: 7.92 µM
SN12C renal
  GI50: 3.59 µM
  TGI: 15.4 µM
MDA-MB-435
  GI50: 1.61 µM
  TGI: 2.99 µM
HS 578T breast
  GI50: 2.57 µM
  TGI: 7.26 µM
A498 renal
  GI50: 2.74 µM
  TGI: 10.6 µM
UACC-257 melanoma
  GI50: 2.31 µM
  TGI: 4.62 µM
MCF7 breast
  GI50: 1.71 µM
  TGI: 3.59 µM
M14 melanoma
  GI50: 2.23 µM
  TGI: 5.63 µM
EKVX NSCLC
  GI50: 4.35 µM
  TGI: 18.9 µM
IGROV1 ovarian
  GI50: 2.08 µM
  TGI: 5.14 µM
NCI-H226 lung
  GI50: 14.3 µM
  TGI: 39.4 µM
SK-MEL-28 melanoma
  GI50: 1.81 µM
  TGI: 4.02 µM
DU-145 prostate
  GI50: 4.05 µM
  TGI: 15.8 µM
K-562 leukemia
  GI50: 1.72 µM
  TGI: 3.91 µM
HCT-15 colon
  GI50: 1.66 µM
  TGI: 3.47 µM
SNB-19 CNS
  GI50: 2.29 µM
  TGI: 5.47 µM
SNB-75 CNS
  GI50: 1.47 µM
  TGI: 2.84 µM
SK-MEL-5 melanoma
  GI50: 1.71 µM
  TGI: 3.11 µM
SF-268 CNS
  GI50: 1.83 µM
  TGI: 3.78 µM
CCRF-CEM leukemia
  GI50: 2.44 µM
  TGI: 6.78 µM
T-47D breast
  GI50: 1.92 µM
  TGI: 5.05 µM
UACC-62 melanoma
  GI50: 1.94 µM
  TGI: 4.06 µM
NCI-H522 lung
  GI50: 1.67 µM
  TGI: 3.65 µM
LOX IMVI melanoma
  GI50: 1.73 µM
  TGI: 3.22 µM
HOP-62 NSCLC
  GI50: 2.6 µM
  TGI: 6.37 µM
PC-3 prostate
  GI50: 2.04 µM
  TGI: 5.17 µM
ACHN renal
  GI50: 1.85 µM
  TGI: 3.89 µM
HOP-92 NSCLC
  GI50: 2.13 µM
  TGI: 5.67 µM
786-0 renal
  GI50: 1.84 µM
  TGI: 3.8 µM
NCI-H460 lung
  GI50: 1.83 µM
  TGI: 4.24 µM
HT29 colon
  GI50: 2.39 µM
  TGI: 4.93 µM
OVCAR-3 ovarian
  GI50: 3.47 µM
  TGI: 13.7 µM
UO-31 renal
  GI50: 1.62 µM
  TGI: 3.32 µM
OVCAR-4 ovarian
  GI50: 3.01 µM
  TGI: 19.5 µM
TK-10 renal
  GI50: 4.04 µM
  TGI: 14.4 µM
U251 CNS
  GI50: 2.47 µM
  TGI: 5.88 µM
HL-60(TB) leukemia
  GI50: 2.28 µM
  TGI: 4.7 µM
RXF 393 renal
  GI50: 1.72 µM
  TGI: 3.36 µM

## N#Cc1c(N)c2c(c(-c3ccccc3)c1-c1ccccc1)C(=O)N(NC(=S)Nc1ccccc1)C2=O
OVCAR-5 ovarian
  TGI: > 100 µM
A549 NSCLC
  TGI: > 100 µM
SF-295 CNS
  TGI: > 100 µM
OVCAR-8 ovarian
  TGI: > 100 µM
SK-MEL-2 melanoma
  TGI: > 100 µM
HCC-2998 colon
  TGI: > 100 µM
CAKI-1 renal
  TGI: > 100 µM
RPMI-8226 leukemia
  TGI: > 100 µM
COLO 205 colon
  TGI: > 100 µM
SF-539 CNS
  TGI: > 100 µM
BT-549 breast
  TGI: > 100 µM
MALME-3M melanoma
  TGI: > 100 µM
SR leukemia
  TGI: > 100 µM
HCT-116 colon
  TGI: > 100 µM
NCI/ADR-RES ovarian
  TGI: > 100 µM
SW-620 colon
  TGI: > 100 µM
MDA-MB-231 breast
  TGI: > 100 µM
KM12 colon
  TGI: > 100 µM
SN12C renal
  TGI: > 100 µM
MDA-MB-435
  TGI: > 100 µM
HS 578T breast
  TGI: > 100 µM
A498 renal
  TGI: > 100 µM
UACC-257 melanoma
  TGI: > 100 µM
MCF7 breast
  TGI: > 100 µM
M14 melanoma
  TGI: > 100 µM
EKVX NSCLC
  TGI: > 100 µM
IGROV1 ovarian
  TGI: > 100 µM
NCI-H226 lung
  TGI: > 100 µM
SK-MEL-28 melanoma
  TGI: > 100 µM
DU-145 prostate
  TGI: > 100 µM
K-562 leukemia
  TGI: > 100 µM
HCT-15 colon
  TGI: > 100 µM
SNB-19 CNS
  TGI: > 100 µM
SNB-75 CNS
  TGI: > 100 µM
SK-MEL-5 melanoma
  TGI: > 100 µM
SF-268 CNS
  TGI: > 100 µM
MOLT-4 leukemia
  TGI: > 100 µM
CCRF-CEM leukemia
  TGI: > 100 µM
T-47D breast
  TGI: > 100 µM
UACC-62 melanoma
  TGI: > 100 µM
NCI-H522 lung
  TGI: > 100 µM
LOX IMVI melanoma
  TGI: > 100 µM
PC-3 prostate
  TGI: > 100 µM
ACHN renal
  TGI: > 100 µM
HOP-92 NSCLC
  TGI: > 100 µM
786-0 renal
  TGI: > 100 µM
NCI-H460 lung
  TGI: > 100 µM
OVCAR-3 ovarian
  TGI: > 100 µM
UO-31 renal
  TGI: > 100 µM
OVCAR-4 ovarian
  TGI: > 100 µM
TK-10 renal
  TGI: > 100 µM
U251 CNS
  TGI: > 100 µM
HL-60(TB) leukemia
  TGI: > 100 µM
RXF 393 renal
  TGI: 93.8 µM

## Cc1ccccc1N1C(N)=C(C#N)C(C#N)(C#N)C1c1ccccc1 (centres undefined)
OVCAR-5 ovarian
  TGI: 41.5 µM
A549 NSCLC
  TGI: 62.7 µM
SF-295 CNS
  TGI: 68.9 µM
OVCAR-8 ovarian
  TGI: 38.4 µM
SK-MEL-2 melanoma
  TGI: 55.3 µM
HCC-2998 colon
  TGI: 32.4 µM
SK-OV-3 ovarian
  TGI: 86.6 µM
CAKI-1 renal
  TGI: > 100 µM
RPMI-8226 leukemia
  TGI: 45.2 µM
COLO 205 colon
  TGI: 33.4 µM
NCI-H23 lung
  TGI: 38.6 µM
SF-539 CNS
  TGI: 37.9 µM
BT-549 breast
  TGI: 28.8 µM
MALME-3M melanoma
  TGI: 32.6 µM
SR leukemia
  TGI: 60.4 µM
HCT-116 colon
  TGI: 33.6 µM
NCI/ADR-RES ovarian
  TGI: 42.2 µM
SW-620 colon
  TGI: 31.7 µM
MDA-MB-231 breast
  TGI: 30.8 µM
KM12 colon
  TGI: 32.6 µM
SN12C renal
  TGI: 59 µM
MDA-MB-435
  TGI: 35.4 µM
HS 578T breast
  TGI: 58 µM
A498 renal
  TGI: 33.7 µM
UACC-257 melanoma
  TGI: 32 µM
MCF7 breast
  TGI: 42.6 µM
M14 melanoma
  TGI: 45 µM
EKVX NSCLC
  TGI: 42.8 µM
IGROV1 ovarian
  TGI: 33.9 µM
NCI-H226 lung
  TGI: 38.8 µM
SK-MEL-28 melanoma
  TGI: 36.5 µM
DU-145 prostate
  TGI: 30.8 µM
HCT-15 colon
  TGI: 35.9 µM
SNB-19 CNS
  TGI: 41.2 µM
SNB-75 CNS
  TGI: 46 µM
SK-MEL-5 melanoma
  TGI: 30.1 µM
SF-268 CNS
  TGI: 45.7 µM
MOLT-4 leukemia
  TGI: 39.3 µM
CCRF-CEM leukemia
  TGI: 36.7 µM
T-47D breast
  TGI: 31 µM
UACC-62 melanoma
  TGI: 37.7 µM
NCI-H522 lung
  TGI: 32.1 µM
LOX IMVI melanoma
  TGI: 32.7 µM
HOP-62 NSCLC
  TGI: 42.5 µM
PC-3 prostate
  TGI: 51 µM
ACHN renal
  TGI: 35.1 µM
HOP-92 NSCLC
  TGI: 35.9 µM
786-0 renal
  TGI: 32.3 µM
HT29 colon
  TGI: 34.2 µM
OVCAR-3 ovarian
  TGI: 35.6 µM
UO-31 renal
  TGI: 31.2 µM
OVCAR-4 ovarian
  TGI: 40.9 µM
TK-10 renal
  TGI: 28.4 µM
U251 CNS
  TGI: 31.9 µM
HL-60(TB) leukemia
  TGI: 44.2 µM
RXF 393 renal
  TGI: 33.9 µM
